According to patent publication US20060167026A1, “Antipsychotic molecular-targeting epithelial growth factor receptor” (Hiroyuki Nawa, priority 2003, published 2006):

How the values were obtained:
[1] = tested on: rat model for cognitive dysfunction (EGF administered to neonatal rats); assay: latent inhibition in two-way active avoidance, neonatally EGF-treated rat model; format: in vivo
Experimental: The rat model for cognitive/behavioral dysfunction was prepared as EGF was administered to neonatal rats as described in the method of Experiment 1. SD rats were subjected to the two-way active avoidance task in an automated shuttle box (Muromachi-kiki, Tokyo, Japan) on postnatal weeks 6-8. The conditioned stimulus (CS) was an 80-dB tone and house light on and off. Rats learned the following task: When the CS was on, the animals had to cross to the other side of the shuttle box apparatus (avoidance response) in order to turn the CS off and avoid the appearance of the unconditioned stimulus (US). […] Rats were given 6 sessions of two-way active-avoidance conditioning (10 trials per session)(total 60 trials). Active-avoidance learning was evaluated by scoring the number of avoidance rate to CS.
Before this learning test was conducted, the CS of an 80-dB tone and house light had been given to normal rats without delivering US (pre-conditioning), following avoidance learning was impaired in these rats (FIG. 5 top; open circle). This is latent inhibition that represents the effect of the pre-exposure of a conditioned stimulus (CS, e.g. tone), preventing the learning of unconditioned stimulus (Russig H et al. Neuropsychopharmacology 26: p 765-777 (2002)).
When the rat model for cognitive/behavioral dysfunction, which is described in the Experiment 1, was exposed to the pre-conditioning. […] Such persistency can be inducible with hallucinogens such as cocaine (Murphy, C. A. et al. Behav Pharmacol. 12:p 13-23 (2001)).

[2] = tested on: rats to which EGF was administered as neonates (model for cognitive dysfunction); assay: prepulse inhibition of acoustic startle in rats to which EGF was administered as neonates; format: in vivo, rat
Experimental: Newborn Sprague-Dawley (SD) rats were purchased from SLC (Shizuoka, Japan). Recombinant human EGF (Higeta-Syoyu Co, Chiba Japan) and cytochrome c (Sigma Chemical Co; control) were dissolved in physiologic saline. These agents were administered subcutaneously to rat pups on postnatal days 2, 4, 6, 8, and 10 at the nape of the neck at a dose of 1.75 μg of 1 g body weight).
Acoustic startle amplitudes and PPI responses were measured in a startle reaction chamber for small animals (SR-Lab Systems, San Diego Instruments, San Diego, Calif.) from postnatal week 3. Acoustic startle was induced with acoustic stimuli (120 dB), in combination with three different prepulse intensities of 5-, 10-, and 15-dB-above background noise (75, 80, 85 dB). The 120 dB pulse was followed 100 ms after one of the prepulses was given. Each rat was placed in the startle chamber and initially acclimatized for 5 min with background noise alone. Prepulse inhibition (PPI) of a startle response was calculated as: 100−[(startle response on prepulse pulse stimulus trials−no stimulus trials)/(pulse alone trials−no stimulus trials)×100].
SD rats treated with EGF or cytochrome c (control) were tested on postnatal days 56-66. […] The same concentration of DMSO solution was used as a control.
After anesthesia, a 28 gauge cannula was inserted into the site of rat skull (0.3 mm anterior and 1.2 mm right lateral measured from the bregma, 4.5 mm below the skull) and glued to the skull with dental cement. The end of cannula was connected to an osmotic minipump (250 μl, effective for 14 days model 2002; Azla Corp.) via vinyl tubing. Pumps were implanted subcutaneously in the nape of the neck. […] The scalp incision was closed with surgical suture and staples, and rats were maintained to wait recovery from the operation.
Seven days after administration, prepulse inhibition of the rats was monitored with 85 dB prepulse intensity using the acoustic startle measurement chamber for small animals (SR-Lab Systems, San Diego Instruments, San Diego, Calif.).

## COc1cc2ncnc(Nc3ccc(F)c(Cl)c3)c2cc1OCCCN1CCOCC1 [Compound B, 4-(3-chloro4-fluoroanilino)-7-methoxy-6-(3-morphorinopropoxy) quianozoline]
[1]; EGF model rats, pre-conditioned, two-way active avoidance
  learning ability of treated model rats relative to normal controls: indistinguishable from that of normal controls
[1]; EGF model rats, pre-conditioned, two-way active avoidance, intraventricular minipump
  effect on abnormal increase in latent inhibition: significantly exert an ameliorative effect on abnormal increase in latent inhibition
[1]; both normal control rats and model rats, after administration
  learning ability in conditioned avoidance learning: exhibited better learning ability
[2]; EGF model rats, intraventricular minipump 1 mg/ml, day 7, 85 dB prepulse
  difference in prepulse inhibition between treated model rats and control animals: no significant differences
[2]; EGF model rats, intraventricular osmotic minipump 1 mg/ml, seven days after administration, 85 dB prepulse, compared to solvent-injected group
  effect on abnormal decrease in prepulse inhibition: significantly ameliorated the abnormal decrease in prepulse inhibition
[2]; normal control rats, intraventricular minipump 1 mg/ml, day 7, 85 dB prepulse
  effect on prepulse inhibition in normal control rats: had no effects in prepulse inhibition
